Legend:
Type in all cases: cell-based
alphaTC-1 cells = test: GLP-1 production in alphaTC-1 cells, RIA of media
Procedure: FIG. 20. […] Upper panel: AlphaTC-1 and alphaTCdeltaPC2 cells were incubated for 24 hrs and total GLP-1 secreted was measured in the media. Lower panel: AlphaTC-1 cells were treated with SDF-1 or SDF-1+exendin-4 (Exd4) for the times indicated. Media obtained from the cells was assayed with an RIA specific for the active GLP-1. The findings of increased expression of PC1/3 activity, as evidenced by the production of GLP-1. In the absence of PC2 in alphaTCdPC2 cells is consistent with the findings reported by Wideman et al from the Kieffer lab and by Webb et al in the Steiner lab. It appears that in the absence of PC2, PC13 is expressed. The appearance of GLP-1 between 1 and 4 hrs (lower panel) is consistent with the induction of PC1/3 expression shown above in […]. A most high priority in the experiments planned is to determine whether SDF-1 (and cytokines) induce the production of GLP-1 peptide in mouse islets, pending the availability of support required to do these studies.

INS-1 or MIN6 cells = test: Thapsigargin-induced apoptosis, caspase-3 activity assay; settings: SDF-1 10 nM with thapsigargin 1 microM, 16 h
Procedure: FIG. 6. Inhibition of apoptosis by SDF-1 in INS-1 and MIN-6 cells is reversed by knock-down of betacatenin. A. Western blot analysis of extracts from MIN6 cells that were mock treated, thapsigargin-treated (1 μM) and/or siRNA transfected (0.25 mg/ml), by using anti-serum against cleaved caspase-3 (upper panel), anti-serum against cleaved PARP (middle panel) and actin antibody (lower panel) as a loading control. B. Caspase-3 activity (fluorescence/mg proteinx105) of INS-1 or MIN6 cells mock treated, thapsigargin-treated (1 μM) and/or siRNA transfected (0.25 mg/ml). Results are presented as mean±SD for n=3 independent experiments, All values are relative to the first (leftmost) bar. […] Quantification of apoptotic cells is expressed as percent apoptotic cells relative to the total cells counted (lower left panel). […]
Thapsigargin-induced apoptosis in INS-1 or MIN6 cells For western immuoblot assay (Cell Signaling), MIN6 cells were seeded into 6 well plates then treated with 1 microM thapsigargin or DMSO control for 16 h and apoptotic activity was measured by Western immunoblotting using antisera specific for cleaved (active) caspase-3 (Cell signaling #9661) and cleaved (active) PARP (Cell signaling #9548). For caspase-3 assay, INS-1 cells or MIN-6 cells in 24-well plates were treated with 1 microM thapsigargin or DMSO for 16 hand caspase-3 activity was determined (Molecular Probes). […]

mouse islets = test: GLP-1 production in mouse islets ex vivo, radioimmunoassay; settings: batches of 50 islets, medium 1 and 4 hours, lysate 4 hr; SDF-1 10 nM
Procedure: FIG. 37. Cytokines and SDF-1 stimulate GLP-1 production in mouse islets ex vivo. Batches of 50 islets were treated with control, cytokine mixture, or 10 nM SDF-1. Medium was collected in 1 hr and 4 hr. Islet lysate was collected in 4 hr. GLP-1. Immunoreactive protein was measured by radioimmunoassay.
Batches of 50 islets were treated with a control vehicle, a cytokine mixture, or 10 nM SDF-1. Medium was collected from each batch at 1 hour and 4 hours, and islet lysate was collected in 4 hr. the concentration of GLP-1 contained in each sample collected was measured by radioimmunoassay of the immunoreactive protein.

Wnt signaling = Wnt signaling reporter (beta-galactosidase) in isolated islets of TopGal mouse; settings: SDF-1 1 nM, isolated TopGal mouse islets
Source text: A. Isolated islets express reporter-driven beta-galactosidase. The dark regions mark the expression of beta-galactosidase, an indicator of the activation of the Wnt signaling reporter LacZ transgene. […] B. Polymerase chain reaction showing changes in beta-galactosidase mRNA levels in islets shown in panel A.
Isolated mouse pancreatic islets Mouse islets were isolated (Lacy PE (1994) Pancreatic islet cell transplant. Mt Sinai J. Med. 61:23-31.) from the pancreata of TopGal reporter mice transgenic for the LEF-LacZ Wnt signaling reporter (DasGupta R, Fuchs E (1999) Development. 1999 126:4557-4568.). Freshly isolated islets were treated for 4 hrs with SDF-1 with and without the addition of the Galphai/o inhibitor pertussis toxin (PTX) or the CXCR4 antagonist AMD3100. Betagalactosidase activity was determined by incubation of the islets with X-gal for 6 hrs.
Polymerase chain reaction analyses of betagalactosidase mRNA levels in isolated mouse islets Islets from TopGal mice were harvested after treatments with SDF-1, SDF-1+AMD3100, and SDF-1+pertussis toxin. RNA was extracted and beta galactosidase mRNA levels were measured by PCR using a SYBR Green QPCR kit (Stratagene) with the primers as described in Liu Z, Habener J F 2008 Glucagon-like Peptide-1 Activation of TCF7L2-dependent Wnt Signaling Enhances Pancreatic Beta Cell Proliferation. […]

In the case of “SDF-1: small, secreted 70 amino acid peptide chemokine, SEQ ID NO: 1, ligand of CXCR4”, the “production of processed GLP-1 peptide” value (alphaTC-1 cells) is reported as “induces the production of processed GLP-1 peptide”, the “effect on thapsigargin-induced caspase-3 activity (proapoptotic effect)” value (INS-1 or MIN6 cells) is reported as “attenuated” and the “production of GLP-1 by mouse islets” value (mouse islets) is reported as “induces the production of GLP-1”. For the same substance, the “activation of Wnt signaling (beta-galactosidase) in TopGal islets” value (Wnt signaling) was “activates Wnt signaling”.

— patent publication US20120053119A1, “THERAPEUTIC METHOD FOR INCREASING PANCREATIC BETA CELL MASS” (priority 2009, published 2012)
